Earlier results in patent US20240401154A1, “SYNTHESIS AND PREPARATION OF ULTRA-LOW VISCOSITY AND HIGH MAGNETIC SUSCEPTIBILITY MAGNETIC IONIC LIQUIDS” (priority 2023, published 2024).
Read-outs that look alike come from different tables or passages of the source. Marks after values point to notes of the source that are not given here.

Key:
[1] = GC-FID; previously referenced MILs; cited from earlier work
[2] = previously referenced MILs, cited from earlier work
[3] = previously studied MILs, Table 2, cited from earlier work
[4] = SQUID magnetometer; previously studied MILs, Table 2; cited from earlier work
[5] = acetone, chloroform, dichloromethane, acetonitrile, methanol, ethanol, diethyl ether, ethyl acetate, isopropanol at 20% (w/v)
[6] = hexane, heptane, benzene, toluene at 10% (w/v)
[7] = hexane, heptane, benzene, toluene at 20% (w/v)

Row | Structure (SMILES) | Onset of MIL volatilization (° C.)^1 [1] [°C] | Solubility [2, 5] | Solubility [2, 6] | Solubility [2, 7] | Solubility ([2]; water at 0.01% (w/v)) | Viscosity ([3]; reported at 19.9° C.) | Effective magnetic moment [4] | Viscosity ([3]; reported at 20.0° C.) | Viscosity ([3]; reported at 23.7° C.)
1 | CCCCCCCCN(CCCCCCCC)C(=O)COCC(=O)N(CCCCCCCC)CCCCCCCC.CCCCCCCCN(CCCCCCCC)C(=O)COCC(=O)N(CCCCCCCC)CCCCCCCC.CCCCCCCCN(CCCCCCCC)C(=O)COCC(=O)N(CCCCCCCC)CCCCCCCC.O=C(C=C([O-])C(F)(F)F)C(F)(F)F.O=C(C=C([O-])C(F)(F)F)C(F)(F)F.O=C(C=C([O-])C(F)(F)F)C(F)(F)F.O=C(C=C([O-])C(F)(F)F)C(F)(F)F.O=C(C=C([O-])C(F)(F)F)C(F)(F)F.O=C(C=C([O-])C(F)(F)F)C(F)(F)F.O=C(C=C([O-])C(F)(F)F)C(F)(F)F.O=C(C=C([O-])C(F)(F)F)C(F)(F)F.O=C(C=C([O-])C(F)(F)F)C(F)(F)F.O=C(C=C([O-])C(F)(F)F)C(F)(F)F.O=C(C=C([O-])C(F)(F)F)C(F)(F)F.O=C(C=C([O-])C(F)(F)F)C(F)(F)F.[Dy+3].[Dy+3].[Dy+3].[Dy+3] [[Dy(TODGA)3][Dy(hfacac)4]3] | 175 | S^b (soluble in acetone, chloroform, dichloromethane, acetonitrile, methanol, ethanol, diethyl ether, ethyl acetate, and isopropanol at 20% (w/v).) | S^a (soluble in hexane, heptane, benzene, and toluene at 10% (w/v).) | S^c (soluble in hexane, heptane, benzene, and toluene at 20% (w/v).) | S^f (insoluble in water at 0.01% (w/v).) | 9,210^e | 20.00^f |  | 
2 | CCCCCCCCCCCCCC[P+](CCCCCC)(CCCCCC)CCCCCC.CCCCCCCCCCCCCC[P+](CCCCCC)(CCCCCC)CCCCCC.CCCCCCCCCCCCCC[P+](CCCCCC)(CCCCCC)CCCCCC.[Cl-].[Cl-].[Cl-].[Cl-].[Cl-].[Cl-].[Gd+3] [[P66614]3[GdCl6]] |  |  |  |  |  |  | 7.86^f | 28,230^d | 
3 | CCCCCCCCCCCCCC[P+](CCCCCC)(CCCCCC)CCCCCC.O=C(C=C([O-])C(F)(F)F)C(F)(F)F.O=C(C=C([O-])C(F)(F)F)C(F)(F)F.O=C(C=C([O-])C(F)(F)F)C(F)(F)F.[Co+2] [[P66614][Co(hfacac)3]] | 130 | S^b (soluble in acetone, chloroform, dichloromethane, acetonitrile, methanol, ethanol, diethyl ether, ethyl acetate, and isopropanol at 20% (w/v).) | S^a (soluble in hexane, heptane, benzene, and toluene at 10% (w/v).) |  | S^f (insoluble in water at 0.01% (w/v).) |  | 4.30^f |  | 575.8^c
4 | CCCCCCCCCCCCCC[P+](CCCCCC)(CCCCCC)CCCCCC.CCCCCCCCCCCCCC[P+](CCCCCC)(CCCCCC)CCCCCC.[Cl-].[Cl-].[Cl-].[Cl-].[Mn+2] [[P66614]2[MnCl4]] |  |  |  |  |  |  | 5.81^f | 112,300^d | 
5 | CCCCCCCCN(CCCCCCCC)C(=O)COCC(=O)N(CCCCCCCC)CCCCCCCC.CCCCCCCCN(CCCCCCCC)C(=O)COCC(=O)N(CCCCCCCC)CCCCCCCC.CCCCCCCCN(CCCCCCCC)C(=O)COCC(=O)N(CCCCCCCC)CCCCCCCC.O=C(C=C([O-])C(F)(F)F)C(F)(F)F.O=C(C=C([O-])C(F)(F)F)C(F)(F)F.O=C(C=C([O-])C(F)(F)F)C(F)(F)F.O=C(C=C([O-])C(F)(F)F)C(F)(F)F.O=C(C=C([O-])C(F)(F)F)C(F)(F)F.O=C(C=C([O-])C(F)(F)F)C(F)(F)F.O=C(C=C([O-])C(F)(F)F)C(F)(F)F.O=C(C=C([O-])C(F)(F)F)C(F)(F)F.O=C(C=C([O-])C(F)(F)F)C(F)(F)F.O=C(C=C([O-])C(F)(F)F)C(F)(F)F.O=C(C=C([O-])C(F)(F)F)C(F)(F)F.O=C(C=C([O-])C(F)(F)F)C(F)(F)F.[Gd+3].[Gd+3].[Gd+3].[Gd+3] [[Gd(TODGA)3][Gd(hfacac)4]3] | 183 | S^b (soluble in acetone, chloroform, dichloromethane, acetonitrile, methanol, ethanol, diethyl ether, ethyl acetate, and isopropanol at 20% (w/v).) | S^a (soluble in hexane, heptane, benzene, and toluene at 10% (w/v).) | S^c (soluble in hexane, heptane, benzene, and toluene at 20% (w/v).) | S^f (insoluble in water at 0.01% (w/v).) | 13,640^e | 14.90^f |  | 
6 | CCCCCCCCN(CCCCCCCC)C(=O)COCC(=O)N(CCCCCCCC)CCCCCCCC.CCCCCCCCN(CCCCCCCC)C(=O)COCC(=O)N(CCCCCCCC)CCCCCCCC.O=C(C=C([O-])C(F)(F)F)C(F)(F)F.O=C(C=C([O-])C(F)(F)F)C(F)(F)F.O=C(C=C([O-])C(F)(F)F)C(F)(F)F.O=C(C=C([O-])C(F)(F)F)C(F)(F)F.O=C(C=C([O-])C(F)(F)F)C(F)(F)F.O=C(C=C([O-])C(F)(F)F)C(F)(F)F.[Co+2].[Co+2].[Co+2] [[Co(TODGA)2][Co(hfacac)3]2] | 231 | S^b (soluble in acetone, chloroform, dichloromethane, acetonitrile, methanol, ethanol, diethyl ether, ethyl acetate, and isopropanol at 20% (w/v).) | S^a (soluble in hexane, heptane, benzene, and toluene at 10% (w/v).) |  | S^f (insoluble in water at 0.01% (w/v).) | 28,310^e | 13.34^f |  | 
7 | CCCCCCCCN(CCCCCCCC)C(=O)COCC(=O)N(CCCCCCCC)CCCCCCCC.CCCCCCCCN(CCCCCCCC)C(=O)COCC(=O)N(CCCCCCCC)CCCCCCCC.CCCCCCCCN(CCCCCCCC)C(=O)COCC(=O)N(CCCCCCCC)CCCCCCCC.O=C(C=C([O-])C(F)(F)F)C(F)(F)F.O=C(C=C([O-])C(F)(F)F)C(F)(F)F.O=C(C=C([O-])C(F)(F)F)C(F)(F)F.O=C(C=C([O-])C(F)(F)F)C(F)(F)F.O=C(C=C([O-])C(F)(F)F)C(F)(F)F.O=C(C=C([O-])C(F)(F)F)C(F)(F)F.O=C(C=C([O-])C(F)(F)F)C(F)(F)F.O=C(C=C([O-])C(F)(F)F)C(F)(F)F.O=C(C=C([O-])C(F)(F)F)C(F)(F)F.O=C(C=C([O-])C(F)(F)F)C(F)(F)F.O=C(C=C([O-])C(F)(F)F)C(F)(F)F.O=C(C=C([O-])C(F)(F)F)C(F)(F)F.[Ho+3].[Ho+3].[Ho+3].[Ho+3] [[Ho(TODGA)3][Ho(hfacac)4]3] | 192 | S^b (soluble in acetone, chloroform, dichloromethane, acetonitrile, methanol, ethanol, diethyl ether, ethyl acetate, and isopropanol at 20% (w/v).) | S^a (soluble in hexane, heptane, benzene, and toluene at 10% (w/v).) | S^c (soluble in hexane, heptane, benzene, and toluene at 20% (w/v).) | S^f (insoluble in water at 0.01% (w/v).) | 10,530^e | 20.86^f |  | 
8 | CCCCCCCCCCCCCC[P+](CCCCCC)(CCCCCC)CCCCCC.O=C(C=C([O-])C(F)(F)F)C(F)(F)F.O=C(C=C([O-])C(F)(F)F)C(F)(F)F.O=C(C=C([O-])C(F)(F)F)C(F)(F)F.[Ni+2] [[P66614][Ni(hfacac)3]] | 225 | S^b (soluble in acetone, chloroform, dichloromethane, acetonitrile, methanol, ethanol, diethyl ether, ethyl acetate, and isopropanol at 20% (w/v).) | S^a (soluble in hexane, heptane, benzene, and toluene at 10% (w/v).) |  | S^f (insoluble in water at 0.01% (w/v).) |  | 2.80^f |  | 927.9^c
9 | CCCCCCCCCCCCCC[P+](CCCCCC)(CCCCCC)CCCCCC.CCCCCCCCCCCCCC[P+](CCCCCC)(CCCCCC)CCCCCC.[Cl-].[Cl-].[Cl-].[Cl-].[Co+2] [[P66614]2[CoCl4]] |  |  |  |  |  |  | 4.45^f | 123,500^d | 
10 | CCCCCCCCCCCCCC[P+](CCCCCC)(CCCCCC)CCCCCC.O=C(C=C([O-])C(F)(F)F)C(F)(F)F.O=C(C=C([O-])C(F)(F)F)C(F)(F)F.O=C(C=C([O-])C(F)(F)F)C(F)(F)F.[Mn+2] [[P66614][Mn(hfacac)3]] | 155 | S^b (soluble in acetone, chloroform, dichloromethane, acetonitrile, methanol, ethanol, diethyl ether, ethyl acetate, and isopropanol at 20% (w/v).) | S^a (soluble in hexane, heptane, benzene, and toluene at 10% (w/v).) |  | S^f (insoluble in water at 0.01% (w/v).) |  | 5.80^f |  | 401.8^c
11 | CCCCCCCCN(CCCCCCCC)C(=O)COCC(=O)N(CCCCCCCC)CCCCCCCC.CCCCCCCCN(CCCCCCCC)C(=O)COCC(=O)N(CCCCCCCC)CCCCCCCC.O=C(C=C([O-])C(F)(F)F)C(F)(F)F.O=C(C=C([O-])C(F)(F)F)C(F)(F)F.O=C(C=C([O-])C(F)(F)F)C(F)(F)F.O=C(C=C([O-])C(F)(F)F)C(F)(F)F.O=C(C=C([O-])C(F)(F)F)C(F)(F)F.O=C(C=C([O-])C(F)(F)F)C(F)(F)F.[Ni+2].[Ni+2].[Ni+2] [[Ni(TODGA)2][Ni(hfacac)3]2] | 235 | S^b (soluble in acetone, chloroform, dichloromethane, acetonitrile, methanol, ethanol, diethyl ether, ethyl acetate, and isopropanol at 20% (w/v).) | S^a (soluble in hexane, heptane, benzene, and toluene at 10% (w/v).) |  | S^f (insoluble in water at 0.01% (w/v).) | 33,830^e | 11.79^f |  | 
